{"source": "paper PMC12305494", "about": "“Discovery of PXR Antagonist MI891 and PXR Degrader MI1013 and Their Roles in Hepatic Gene Regulation” (Journal of Medicinal Chemistry, 2025)", "key": {"human CAR LBD [1]": {"target": "T1, human CAR LBD (Homo sapiens, UniProt Q14994)", "T1 sequence (Q14994 103-352)": "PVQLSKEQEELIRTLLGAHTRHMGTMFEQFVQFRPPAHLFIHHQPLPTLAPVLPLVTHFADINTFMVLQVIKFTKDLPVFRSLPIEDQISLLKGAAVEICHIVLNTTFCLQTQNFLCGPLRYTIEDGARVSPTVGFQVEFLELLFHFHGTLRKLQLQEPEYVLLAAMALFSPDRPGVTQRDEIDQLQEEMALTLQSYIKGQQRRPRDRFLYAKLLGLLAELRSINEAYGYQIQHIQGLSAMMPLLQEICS", "assay": "LanthaScreen TR-FRET CAR Coactivator assay", "assay_type": "biochemical", "settings": "nb = no binding", "experimental": "We utilized the LanthaScreen TR-FRET CAR Coactivator Binding Assay Kit, goat (Thermo Fisher Scientific, Cat. No. PV4836), which includes GST-tagged human CAR LBD and a fluorescein-labeled PGC1α coactivator peptide. The assay was performed with slight modifications to the manufacturer’s protocol, as previously reported. […] The interaction with the PXR ligand-binding domain (LBD) was assessed using the LanthaScreen TR-FRET PXR Competitive Binding Assay (Thermo Fisher Scientific, PV4839), as previously described. This assay quantifies the ability of test compounds to displace a fluorescent PXR ligand from the receptor. Fluorescence readings were taken on a Synergy 2 Multi-Mode Microplate Reader (BioTek, Winooski, VT). The half-maximal inhibitory concentration (IC50) for PXR LBD was calculated from at least eight data points using GraphPad Prism software."}, "human CAR LBD [2]": {"target": "T2, human CAR LBD (Homo sapiens, UniProt Q14994)", "T2 construct": "constructs encoding helices 3–12 and helix 1 of human CAR LBD; expressed in transfected cells; host or cells: HepG2", "T2 sequence (Q14994 103-150 isoform Q14994-2 limits assumed)": "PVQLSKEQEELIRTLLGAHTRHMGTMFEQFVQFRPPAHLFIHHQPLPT", "T2 sequence (Q14994 151-348 isoform Q14994-2 limits assumed)": "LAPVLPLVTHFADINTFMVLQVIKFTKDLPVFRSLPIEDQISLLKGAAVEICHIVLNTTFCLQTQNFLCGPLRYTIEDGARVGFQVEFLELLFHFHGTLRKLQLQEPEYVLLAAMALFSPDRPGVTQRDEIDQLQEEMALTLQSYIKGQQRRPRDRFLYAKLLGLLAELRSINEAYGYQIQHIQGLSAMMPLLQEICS", "assay": "CAR LBD assembly assay (CAR AA)", "assay_type": "cell-based", "settings": "na = no activity; tox = cytotoxicity in HepG2 cells", "description": "The CAR LBD assembly assay used constructs encoding helices 3–12 and helix 1 of human CAR LBD as described before. GL4.31[luc2P/GAL4UAS/Hygro] (pGAL4 UAS-luc) luciferase reporter vector and pRL-TK Renilla expression vector (Promega) were used in the assay in HepG2 cells transfected using Lipofectamine 3000."}, "PXR [3]": {"target": "T3, PXR (Homo sapiens, UniProt O75469)", "T3 sequence (O75469 1-434)": "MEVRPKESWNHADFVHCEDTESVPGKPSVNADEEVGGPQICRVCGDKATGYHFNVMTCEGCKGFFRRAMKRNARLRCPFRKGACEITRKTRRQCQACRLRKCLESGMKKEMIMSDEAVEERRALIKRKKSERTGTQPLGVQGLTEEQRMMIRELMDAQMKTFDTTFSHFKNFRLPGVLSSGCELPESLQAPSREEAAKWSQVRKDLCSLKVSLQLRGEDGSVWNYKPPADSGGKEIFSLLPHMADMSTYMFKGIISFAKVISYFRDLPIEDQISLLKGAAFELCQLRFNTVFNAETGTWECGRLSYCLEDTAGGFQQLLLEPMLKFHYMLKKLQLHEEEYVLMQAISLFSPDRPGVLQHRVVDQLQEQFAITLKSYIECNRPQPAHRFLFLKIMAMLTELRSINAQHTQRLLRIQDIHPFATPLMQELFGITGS", "assay": "cell-based", "settings": "PXR antagonism: PXR inhibition (IC50, μM), antagonist mode with 10 μM rifampicin; mean ± SD, n = 3", "procedure": "The PXR activity was assessed as the PXR-dependent transcriptional activation using the construct. […] The control vector pRL-TK (Promega) constitutively expresses Renilla luciferase. […] Transient transfection experiments followed published protocols used in our laboratory and described before. , Luciferase reporter assays were conducted to evaluate interactions with PXR or CAR and their variants in HepG2, or COS-1. Cells were seeded at a density of 40,000 cells/cm^2 in 48-well plates (ThermoFisher Scientific) and maintained at 37 °C in a humidified atmosphere with 5% CO2. […] Following seeding, HepG2 cells were transfected with 150 ng/well of a luciferase reporter construct and 100 ng/well of a nuclear receptor expression vector using Lipofectamine 3000 (ThermoFisher Scientific) and with pRL-TK (30 ng/well) serving as the normalization control. After 24 h, cells were treated with test compounds for 24 h before cell lysis and subsequent firefly and Renilla luciferase activity analysis using the Dual-Glo Luciferase Assay System (Promega). […] The activities of test compounds were normalized to the respective controls to determine % activation or inhibition."}, "PXR [4]": {"target": "T3, PXR", "assay": "PXR-responsive CYP3A4 promoter luciferase reporter assay in HepG2, inverse agonist mode (basal activity)", "assay_type": "cell-based", "set-up": "expressed in transfected cells; host or cells: HepG2", "settings": "tested at 10 μM, DMSO (0.1%) = 100% basal activity", "experimental": "Rhesus monkey, mouse, and rat PXR expression vectors (100 ng/well each) were also obtained from GenScript. […] Carlberg (University of Kuopio, Kuopio, Finland).\nThe cells were cultured in DMEM medium (Merck) supplemented with 10% fetal bovine serum."}, "PXR [5]": {"target": "T4, PXR (Homo sapiens, UniProt O75469+Q96SW2)", "T4 construct": "differentiated hepatic HepaRG cells, which naturally express high PXR activity and expression; endogenous in cells; host or cells: differentiated HepaRG", "T4 sequence (Q96SW2 whole entry, one chain of several)": "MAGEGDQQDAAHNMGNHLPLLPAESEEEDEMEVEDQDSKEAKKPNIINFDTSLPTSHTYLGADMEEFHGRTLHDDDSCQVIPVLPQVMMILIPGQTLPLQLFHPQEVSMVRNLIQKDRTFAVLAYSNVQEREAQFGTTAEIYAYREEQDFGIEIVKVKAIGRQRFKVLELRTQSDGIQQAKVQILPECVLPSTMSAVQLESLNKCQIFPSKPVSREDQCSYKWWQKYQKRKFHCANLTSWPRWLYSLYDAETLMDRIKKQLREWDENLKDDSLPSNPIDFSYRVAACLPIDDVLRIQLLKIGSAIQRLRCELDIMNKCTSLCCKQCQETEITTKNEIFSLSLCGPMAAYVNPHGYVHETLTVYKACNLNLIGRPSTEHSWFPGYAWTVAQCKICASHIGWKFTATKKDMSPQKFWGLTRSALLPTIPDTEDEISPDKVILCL", "assay": "Western blot of PXR in differentiated HepaRG cells", "assay_type": "cell-based", "settings": "24 h", "experimental": "The harvested HepaRG cells were lysed in RIPA lysis buffer (Cat. no 89900, Thermo Scientific) containing Halt protease inhibitor cocktail inhibitors (Thermo Scientific). Protein concentration was measured using the Pierce BCA Protein Assay Kit (Cat. no. 23225, Thermo Scientific), samples were diluted in 4 × Laemmli sample buffer (Cat. no. 1610747, BioRad) supplemented with mercaptoethanol and heated at 95 °C for 5 min. Equal amounts of protein were loaded in 4–20% Mini-PROTEAN TGX Stain-Free Protein Gels (12 well. cat. no. 4561095 or 15 well, cat. no. 4568096, Bio-Rad), electrophorised, and transferred onto Trans-Blot Turbo Midi-size PVDF Membrane (cat. no. 1704273, Bio-Rad), and blocked with EveryBlot Blocking buffer for 10 min (cat. no. 12010020, Bio-Rad). The membranes were incubated overnight at 4 °C with the following antibodies: PXR polyclonal antibody (1:500, PA5–41170, Invitrogen), RXRA polyclonal antibody (1:1000, 21218–1-AP, Proteintech), and GSPT1 polyclonal antibody (1:1000, 10763-a-AP, Proteintech), washed with TBS-T for 3 times, and followed by incubation with goat antirabbit IgG (H + L) Secondary antibody, HRP (1:200, 000, 1 h, cat. no. 31460, Invitrogen). Chemiluminescence signals were detected using SuperSignal West Femto Maximum Sensitivity Substrate (cat. no. 34096, Thermo Scientific) and visualized by the ChemiDoc MP Imaging system (Universal Hood III, #731BR02821, Bio-Rad), and the bands were quantified using β-actin (1:2000, recombinant rabbit conjugated monoclonal antibody (JF53-10), cat. no. MA5-32540, Invitrogen) as loading control with ImageJ (version 1.54g) software."}, "[6]": {"assay": "Plasma stability, mouse plasma", "assay_type": "in vitro ADME", "settings": "up to 120 min, read-out: Plasma stability, t1/2 (min), mouse", "experimental": "The protocols and reagents for the plasma protein binding assay and metabolic stability testing in human and mouse liver microsomes are detailed in our previous report. Briefly, metabolic stability of compounds was assessed at a single concentration (5 μM) at t = 0, 10, 30, and at t = 45 min. The stability of compounds was tested in human and mouse microsomes (ThermoFisher Scientific). Compounds were tested in triplicate with or without NADPH wells as a negative control for cytochrome P450 metabolism. In addition to hepatic metabolism, compounds were also subjected to degradation/modification by enzymes in human (VWR International) and mouse (Biomedica, CZ) plasma for t = 0, 30, 60, and at t = 120 min. Each assay included a substrate with known activity as a positive control. Time points were analyzed by LC/MS/MS. The peak area for the parent compound is compared to the time zero sample in order to assess the amount of remaining compound."}}, "data": [{"compound": "NC(=O)c1cc(Cn2cc(-c3c(-c4ccc(C5CC5)cc4)nc4ccccn34)nn2)ccc1Cl", "note": "[Compound 4, 2-Chloro-5-((4-(2-(4-cyclopropylphenyl)imidazo[1,2-a]pyridin-3-yl)-1H-1,2,3-triazol-1-yl)methyl)benzamide]", "values": [{"measurement": "CAR TR-FRET (EC50, μM)", "setting": "human CAR LBD [1]", "value": "nb"}, {"measurement": "EC50", "setting": "human CAR LBD [2]", "value": "> 20", "unit": "µM"}, {"measurement": "IC50", "setting": "PXR [3]", "value": "5.76 ± 2.6", "unit": "µM"}]}, {"compound": "CNC(=S)c1cc(Cc2nnc(-c3c(-c4ccc(Cl)cc4)nc4ccccn34)o2)ccc1Cl", "note": "[Compound 6, 2-Chloro-5-((5-(2-(4-chlorophenyl)imidazo[1,2-a]pyridin-3-yl)-1,3,4-oxadiazol-2-yl)methyl)-N-methylbenzothioamide]", "values": [{"measurement": "EC50", "setting": "human CAR LBD [1]", "value": 0.162, "unit": "µM"}, {"measurement": "EC50", "setting": "human CAR LBD [2]", "value": "0.99 ± 0.15", "unit": "µM"}, {"measurement": "IC50", "setting": "PXR [3]", "value": "> 100", "unit": "µM"}]}, {"compound": "CC(c1ccc(Cl)c(C(N)=O)c1)n1cc(-c2c(-c3ccc(Cl)cc3)nc3ccccn23)nn1", "note": "(centres unmarked) [Compound 2, 2-Chloro-5-(1-(4-(2-(4-chlorophenyl)imidazo[1,2-a]pyridin-3-yl)-1H-1,2,3-triazol-1-yl)ethyl)benzamide]", "values": [{"measurement": "EC50", "setting": "human CAR LBD [1]", "value": "> 5", "unit": "µM"}, {"measurement": "EC50", "setting": "human CAR LBD [2]", "value": "5.3 ± 0.3", "unit": "µM"}, {"measurement": "IC50", "setting": "PXR [3]", "value": "25.4 ± 3.5", "unit": "µM"}]}, {"compound": "CNC(=O)c1cc(Cc2nnc(-c3c(-c4ccc(Cl)cc4)nc4ccccn34)o2)ccc1Cl", "note": "[Compound 5, 2-Chloro-5-((5-(2-(4-chlorophenyl)imidazo[1,2-a]pyridin-3-yl)-1,3,4-oxadiazol-2-yl)methyl)-N-methylbenzamide]", "values": [{"measurement": "EC50", "setting": "human CAR LBD [1]", "value": 0.401, "unit": "µM"}, {"measurement": "EC50", "setting": "human CAR LBD [2]", "value": "1.02 ± 0.2", "unit": "µM"}, {"measurement": "IC50", "setting": "PXR [3]", "value": "> 100", "unit": "µM"}]}, {"compound": "NC(=O)c1cc(Cn2cc(-c3c(-c4ccncc4)nc4ccccn34)nn2)ccc1Cl", "note": "[Compound 3, 2-Chloro-5-((4-(2-(pyridine-4-yl)imidazo[1,2-a]pyridine-3-yl)-1H-1,2,3-triazol-1-yl)methyl)benzamide]", "values": [{"measurement": "CAR TR-FRET (EC50, μM)", "setting": "human CAR LBD [1]", "value": "nb"}, {"measurement": "IC50", "setting": "PXR [3]", "value": "> 100", "unit": "µM"}]}, {"compound": "NC(=O)c1cc(Cn2cc(-c3c(-c4ccc(Cl)cc4)nc4cc(F)ccn34)nn2)ccc1Cl", "note": "[Compound 9, 2-Chloro-5-((4-(2-(4-chlorophenyl)-7-fluoroimidazo[1,2-a]pyridin-3-yl)-1H-1,2,3-triazol-1-yl)methyl)benzamide]", "values": [{"measurement": "PXR inverse agonism: decrease of basal activity in %", "setting": "PXR [4]", "value": "(-72.03±0.3) %"}, {"measurement": "PXR inverse agonism: decrease of basal activity in %", "setting": "PXR [4]; listed as 9 (MI-883)", "value": "–72.03 ± 0.3%"}]}, {"compound": "N-(4-((1-(2,5-Dimethoxyphenyl)-5-methyl-1H-1,2,3-triazol-4-yl)sulfonyl)phenyl)-3-(2-(2-(4-(((2-(2,6-dioxopiperidin-3-yl)-1,3-dioxoisoindolin-4-yl)amino)methyl)-1H-1,2,3-triazol-1-yl)ethoxy)ethoxy)propenamide [Compound 35]", "values": [{"measurement": "PXR degradation (Western blot)", "setting": "PXR [5]", "value": "no effect on PXR degradation"}]}, {"compound": "COc1ccc(OC)c(-n2nnc(S(=O)(=O)c3ccc(NC(=O)CCOCCOCCOCCOCCn4cc(CNc5cccc6c5C(=O)N(C5CCC(=O)NC5=O)C6=O)nn4)cc3)c2C)c1", "note": "(centres unmarked) [Compound 37, N-(4-((1-(2,5-dimethoxyphenyl)-5-methyl-1H-1,2,3-triazol-4-yl)sulfonyl)phenyl)-1-(4-(((2-(2,6-dioxopiperidin-3-yl)-1,3-dioxoisoindolin-4-yl)amino)methyl)-1H-1,2,3-triazol-1-yl)-3,6,9,12-tetraoxapentadecan-15-amide]", "values": [{"measurement": "PXR degradation (Western blot)", "setting": "PXR [5]", "value": "mild effect on PXR degradation"}]}, {"compound": "CN(C)C(=O)c1cc(Cc2nnc(-c3c(-c4ccc(Cl)cc4)nc4ccccn34)s2)ccc1Cl", "note": "[Compound 7, 2-Chloro-5-((5-(2-(4-chlorophenyl)imidazo[1,2-a]pyridin-3-yl)-1,3,4-thiadiazol-2-yl)methyl)-N,N-dimethylbenzamide]", "values": [{"measurement": "EC50", "setting": "human CAR LBD [2]", "value": "0.5 ± 0.01", "unit": "µM"}, {"measurement": "IC50", "setting": "PXR [3]", "value": "4.94 ± 0.9", "unit": "µM"}]}, {"compound": "CNC(=O)c1cc(Cn2cc(-c3c(-c4ccc(Cl)cc4)nc4c(F)cc(F)cn34)nn2)ccc1Cl", "note": "[Compound 12, 2-Chloro-5-((4-(2-(4-chlorophenyl)-6,8-difluoroimidazo[1,2-a]pyridin-3-yl)-1H-1,2,3-triazol-1-yl)methyl)-N-methylbenzamide]", "values": [{"measurement": "CAR TR-FRET (EC50, μM)", "setting": "human CAR LBD [1]", "value": "nb"}, {"measurement": "IC50", "setting": "PXR [3]", "value": "8.04 ± 2.3", "unit": "µM"}]}, {"compound": "CC(C)[N+](C)(CCOC(=O)C1c2ccccc2Oc2ccccc21)C(C)C", "note": "[Propantheline, reference compound]", "values": [{"measurement": "half-life", "setting": "[6]", "value": "28 ± 1", "unit": "min"}]}]}
